One assay concerns B16. Put plainly: Compound was evaluated for the concentration which inhibits B16 melanoma cell proliferation by 50%. Type of assay: functional. The settings on record: Mus musculus, read-out: ED50 (the source's name).
For another assay, the system named is Tubulin. Put plainly: Compound was evaluated for the in vitro concentration required to produce 50% stimulation of the microtubule assembly. The settings on record: read-out: ED50 (the source's name).

Each structure is given as a SMILES string.

With `CC(=O)O[C@H]1C(=O)[C@@]2(C)[C@H]([C@H](OC(=O)c3ccccc3)[C@]3(O)C[C@H](OC(=O)[C@H](O)[C@@H](NC(=O)c4ccccc4)c4ccccc4)C(C)=C1C3(C)C)[C@]1(OC(C)=O)CO[C@@H]1C[C@@H]2O` [PACLITAXEL], the EC50 turned out to be 0.0315 µM with B16 and 0.7 µM in the assay with Tubulin.
With `CC(=O)O[C@H]1C(=O)[C@]2(C)[C@@H](OC(=O)c3ccc(N=[N+]=[N-])cc3)C[C@H]3OC[C@@]3(OC(C)=O)[C@H]2[C@H](OC(=O)c2ccccc2)[C@]2(O)C[C@H](OC(=O)[C@H](O)C(NC(=O)c3ccccc3)c3ccccc3)C(C)=C1C2(C)C` (some centres undefined), the EC50 with B16 came out at 0.957 µM; in the assay on Tubulin, 15 µM.

The values above are taken from ChEMBL document CHEMBL1126436, “Taxol Photoaffinity Label: 7-(p-Azidobenzoyl)taxol Synthesis and Biological Evaluation” (1992).
